Results taken from ChEMBL document CHEMBL5365532, “Discovery of Triazinone Derivatives as Novel, Specific, and Direct NLRP3 Inflammasome Inhibitors for the Treatment of DSS-Induced Ulcerative Colitis” (J Med Chem, 2023).
The source made the active and inactive calls. The calls are words filed in the database; no cut-off is given here.

What was measured:
[1] = AUC (0 to t) in BALB/c mouse at 10 mg/kg, po; type: ADME, organism-based; design: dose 10 mg/kg, route po; conditions: in vivo
[2] = MRT (0 to t) in BALB/c mouse at 10 mg/kg, iv; type: ADME, organism-based; conditions: in vivo
[3] = Tmax in BALB/c mouse at 10 mg/kg, po; type: ADME, organism-based; conditions: in vivo
[4] = biological target: NACHT, LRR and PYD domains-containing protein 3 (Mus musculus) (UniProt Q8R4B8); assay: Inhibition of NLRP3 inflammasome in C57BL/6 mouse BMDM cells assessed as inhibition of LPS/ATP-induced IL-1 beta secretion at 0.2 to 0.8 uM pretreated with LPS for 3 hrs followed by incubation with compound for 40 mins and later stimulated with ATP for 1 hr by ELISA; type: cell-based; conditions: dose 0.2-0.8 µM, time 100.0 min
Chain of NACHT, LRR and PYD domains-containing protein 3 (Mus musculus) (Q8R4B8 whole entry, the tested form may be a part): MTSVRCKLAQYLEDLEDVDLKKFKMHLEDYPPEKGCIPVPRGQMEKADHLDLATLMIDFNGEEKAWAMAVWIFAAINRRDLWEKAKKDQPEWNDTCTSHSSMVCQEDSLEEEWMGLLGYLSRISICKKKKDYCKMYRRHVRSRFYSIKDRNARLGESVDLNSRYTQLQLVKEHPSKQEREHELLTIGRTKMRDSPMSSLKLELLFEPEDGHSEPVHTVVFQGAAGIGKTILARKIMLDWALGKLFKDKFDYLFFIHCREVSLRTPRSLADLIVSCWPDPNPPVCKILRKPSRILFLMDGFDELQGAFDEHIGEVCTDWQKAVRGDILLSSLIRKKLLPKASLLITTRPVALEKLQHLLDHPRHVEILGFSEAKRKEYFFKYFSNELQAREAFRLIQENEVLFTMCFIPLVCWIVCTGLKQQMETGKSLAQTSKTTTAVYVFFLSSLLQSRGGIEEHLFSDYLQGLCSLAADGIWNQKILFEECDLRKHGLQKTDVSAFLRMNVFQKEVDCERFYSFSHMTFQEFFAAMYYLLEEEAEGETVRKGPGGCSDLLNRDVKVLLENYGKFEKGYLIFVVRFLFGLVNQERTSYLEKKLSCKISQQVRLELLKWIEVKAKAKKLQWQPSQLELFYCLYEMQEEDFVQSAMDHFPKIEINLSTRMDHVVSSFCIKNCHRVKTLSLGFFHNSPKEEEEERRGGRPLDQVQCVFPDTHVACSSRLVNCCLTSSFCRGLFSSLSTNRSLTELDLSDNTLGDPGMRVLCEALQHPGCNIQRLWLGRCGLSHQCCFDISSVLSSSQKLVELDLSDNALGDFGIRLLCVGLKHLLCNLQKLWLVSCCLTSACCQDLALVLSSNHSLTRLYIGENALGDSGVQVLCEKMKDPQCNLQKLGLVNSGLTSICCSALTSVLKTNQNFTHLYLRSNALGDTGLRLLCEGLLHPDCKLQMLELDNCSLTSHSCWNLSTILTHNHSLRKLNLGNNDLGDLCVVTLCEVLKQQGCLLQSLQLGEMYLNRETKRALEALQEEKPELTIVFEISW

[5] = Cmax in BALB/c mouse at 10 mg/kg, po; type: ADME, organism-based; design: dose 10 mg/kg, route po; conditions: in vivo
[6] = MRT (0 to t) in BALB/c mouse at 10 mg/kg, po; type: ADME, organism-based; conditions: in vivo
Mus musculus [7] = assay: Antiinflammatory activity against DSS-induced ulcerative colitis C57BL/6 mouse model assessed as decrease in NLRP3 protein expression in colon at 30 mg/kg, ip fed with DSS for 6 days followed by administration with compound for 5 days and measured on day 11 by western blot analysis; type: functional, organism-based; conditions: time 5.0 day
Mus musculus [8] = assay: Antiinflammatory activity against DSS-induced ulcerative colitis C57BL/6 mouse model assessed as decrease in IL-1 beta level in colon at 10 to 30 mg/kg, ip fed with DSS for 6 days followed by administration with compound for 5 days and measured on day 11 by ELISA; type: functional, organism-based; conditions: dose 10-30 mg/kg, time 5.0 day
Homo sapiens [9] = organism: Homo sapiens; assay: Binding affinity to N-terminal GST-tagged human NLRP3deltaLRR mutant (1 to 649 residues) expressed in Escherichia coli BL21 assessed as decrease in pronase-mediated protein degradation at 1 to 100 uM incubated with compound for 50 mins followed by pronase digestion for 30 mins by DARTS analysis; conditions: dose 1-100 µM, time 80.0 min
[10] = AUC (0 to t) in BALB/c mouse at 10 mg/kg, iv; type: ADME, organism-based; design: dose 10 mg/kg, route iv; conditions: in vivo
Mus musculus [11] = assay: (§1) Antiinflammatory activity against DSS-induced ulcerative colitis C57BL/6 mouse model assessed as decrease in TNF-alpha level in colon at 10 to 30 mg/kg, ip fed with DSS for 6 days followed by administration with compound for 5 days and measured on day 11 by ELISA; type: functional, organism-based; conditions: dose 10-30 mg/kg, time 5.0 day
Mus musculus [12] = assay: Antiinflammatory activity against DSS-induced ulcerative colitis C57BL/6 mouse model assessed as decrease in body weight loss at 10 to 30 mg/kg, ip fed with DSS for 6 days followed by administration with compound for 5 days; type: functional, organism-based; conditions: dose 10-30 mg/kg, time 5.0 day
[13] = Tmax in BALB/c mouse at 10 mg/kg, iv; type: ADME, organism-based; conditions: in vivo
Mus musculus [14] = assay: as §1, with “inflammatory cell infiltration” for “TNF-alpha level”, “H and E staining based analysis” for “ELISA”; type: functional, organism-based; conditions: dose 10-30 mg/kg, time 5.0 day
THP-1 = assay: Inhibition of lysosomal damage in PMA-differentiated human THP-1 cells at 0.2 to 45 uM pretreated with LPS for 3 hrs followed by incubation with compound for 40 mins and later stimulated with nigericin for 35 mins by AO staining based analysis; type: functional, cell-based; conditions: dose 0.2-45 µM, time 75.0 min
[15] = Metabolic stability in human liver microsomes; type: ADME, Microsome
Homo sapiens [16] = organism: Homo sapiens; assay: Binding affinity to N-terminal GST-tagged human NLRP3deltaLRR mutant (1 to 649 residues) expressed in Escherichia coli BL21 assessed as increase in protein thermal stability at 10 to 20 uM at 48 to 72 degC by CETSA analysis; conditions: dose 10-20 µM

In the case of `CC(C)c1nn(Cc2nnc(-c3ccc(C(F)(F)F)nc3Cl)o2)c(=O)c2cc3sc(Cl)cc3n12`, the AUC(0-t) [1] is reported as 1170 ng·h/mL, the MRT last [2] is reported as 1.54 h and the Tmax [3] is reported as 1 h. The inhibition [4] was “Active”, the Cmax [5] was 437 ng/mL and the MRT last [6] was 3.27 h. The Activity (Mus musculus [7]) was “Active”, the Activity (Mus musculus [8]) was “Active” and the Activity (Homo sapiens [9]) was “Active”. The AUC(0-t) [10] was 5210 ng·h/mL, the Activity (Mus musculus [11]) was “Active” and the Activity (Mus musculus [12]) was “Active”. For the same compound, the Tmax [13] was 4.8 min, the Activity (Mus musculus [14]) was “Active” and the inhibition (THP-1) was “inactive”. For the same compound, the half-life [15] was 0.525 h and the Activity (Homo sapiens [16]) was “Active”.
